Assay results: patent US8143257B2, “Substituted phenols as active agents inhibiting VEGF production” (PTC Therapeutics, Inc., priority 2004, dated 2012)

tested on: hypoxia-inducible endogenous VEGF expression; assay: Assay to evaluate effect on hypoxia-inducible endogenous VEGF expression (VEGF ELISA, HeLa cells); assay type: cell-based; settings: HeLa cells cultured 24-48 hours under hypoxic conditions (1% O2, 5% CO2); VEGF in conditioned media by ELISA; read-out: ELISA EC50 (effective concentration required to lower the amount of VEGF translation by 50%)
Protocol: Assay to Evaluate Effect on Hypoxia-Inducible Endogenous VEGF Expression
The ability of the compounds of the invention to modulate hypoxia-inducible endogenous VEGF expression is analyzed as follows. VEGF protein levels are monitored by an ELISA assay (R&D Systems). Briefly, HeLa cells are cultured for 24-48 hours under hypoxic conditions (1% O2, 5% CO2, balanced with nitrogen) in the presence or absence of a compound of the invention. The conditioned media is then assayed by ELISA, and the concentration of VEGF is calculated from the standard ELISA curve of each assay.
A dose-response analysis is performed using the ELISA assay and conditions described above. A series of, e.g., seven different concentrations are analyzed. In parallel, a dose-response cytotoxicity assay is performed using Cell Titer Glo (Promega) under the same conditions as the ELISA to ensure that the inhibition of VEGF expression is not due to the cytotoxicity. Dose-response curves are plotted using percentage inhibition versus concentration of the compound, and EC50 and CC50 values are generated for each compound with the maximal inhibition set as 100% and the minimal inhibition as 0%.
The most preferred compounds of the invention are those with μM values of 3 or less.

SMILES	EC50
Cc1ccc2cc(OC(=O)N3CCC(C)CC3)ccc2n1 [4-Methyl-piperidine-1-carboxylic acid 2-methyl-quinolin-6-yl ester]	> 30 µM
Cc1ccc(OC(=O)N2C(C)CCCC2C)c(Br)c1 (centres unmarked) [2,6-Dimethyl-piperidine-1-carboxylic acid 2-bromo-4-methyl-phenyl ester]	> 30 µM
Cc1ccc2cc(OC(=O)N3CCCC3)ccc2n1 [Pyrrolidine-1-carboxylic acid 2-methyl-quinolin-6-yl ester]	> 30 µM
O=C(Oc1ccccc1Br)N1CCCC1 [Pyrrolidine-1-carboxylic acid 2-bromo-phenyl ester]	> 30 µM
O=C(Oc1ccccc1Br)N1CCc2ccccc21 [2,3-Dihydro-indole-1-carboxylic acid 2-bromo-phenyl ester]	> 30 µM

same assay, conditions: Homo sapiens, HeLa, read-out: ELISA EC50 (effective concentration required to lower the amount of VEGF translation by 50%)

SMILES	EC50
CN(C(=O)Oc1ccc2ccccc2c1)c1ccccc1 [Methyl-phenyl-carbamic acid naphthalen-2-yl ester]	> 10 µM
Cc1ccc(OC(=O)N2CCCN(C)CC2)c(Br)c1 [4-Methyl-[1,4]diazepane-1-carboxylic acid 2-bromo-4-methyl-phenyl ester]	> 30 µM
CN1CCN(C(=O)Oc2ncc3ccccc3c2Cl)CC1 [4-Methyl-piperazine-1-carboxylic acid 4-chloro-isoquinolin-3-yl ester]	> 10 µM

same assay, conditions: Homo sapiens; HeLa cells cultured 24-48 hours under hypoxic conditions (1% O2, 5% CO2); VEGF in conditioned media by ELISA; read-out: ELISA EC50 (effective concentration required to lower the amount of VEGF translation by 50%)

SMILES	EC50
CC1CCCCN1C(=O)Oc1cc2ccccc2cn1 (centres unmarked) [2-Methyl-piperidine-1-carboxylic acid isoquinolin-3-yl ester]	> 30 µM
O=C(Oc1ccccc1Br)N1CCCCC1 [Piperidine-1-carboxylic acid 2-bromo-phenyl ester]	> 30 µM
O=C(Nc1ccc2ccccc2c1Cl)N1CCCCC1 [Piperidine-1-carboxylic acid (1-chloro-naphthalen-2-yl)-amide]	> 10 µM
CC1CCCCN1C(=O)Oc1ccc2ccccc2c1Br (centres unmarked) [2-Methyl-piperidine-1-carboxylic acid 1-bromo-naphthalen-2-yl ester]	0.687 µM
Cc1ccc(OC(=O)N2CCCC2)c(Br)c1 [Pyrrolidine-1-carboxylic acid 2-bromo-4-methyl-phenyl ester]	> 30 µM
CC1CC(C)CN(C(=O)Oc2ccc3ccccc3c2NS(C)(=O)=O)C1 (centres unmarked) [3,5-Dimethyl-piperidine-1-carboxylic acid 1-methanesulfonylamino-naphthalen-2-yl ester]	> 5 µM
CS(=O)(=O)Nc1c(O)ccc2ccccc12 [N-(2-Hydroxy-naphthalen-1-yl)-methanesulfonamide]	> 5 µM
O=C(Nc1ccc2ccccc2c1Cl)N1CCC(Cc2ccccc2)CC1 [4-Benzyl-piperidine-1-carboxylic acid (1-chloro-naphthalen-2-yl)-amide]	> 10 µM
O=C(Oc1ccc2cc(Br)ccc2c1Br)N1CCOCC1 [Morpholine-4-carboxylic acid 1,6-dibromo-naphthalen-2-yl ester]	> 30 µM
O=C(Oc1cc2ccccc2cn1)N1CCc2ccccc21 [2,3-Dihydro-indole-1-carboxylic acid isoquinolin-3-yl ester]	> 30 µM
O=C(Oc1ccccc1Br)N1CCC(Cc2ccccc2)CC1 [4-Benzyl-piperidine-1-carboxylic acid 2-bromo-phenyl ester]	> 30 µM
COc1ccc2ccc(OC(=O)N3CCC(C(O)(c4ccccc4)c4ccccc4)CC3)c(Br)c2c1 [4-(Hydroxy-diphenyl-methyl)-piperidine-1-carboxylic acid 1-bromo-7-methoxy-naphthalen-2-yl ester]	> 10 µM
CC(=O)c1c(OC(=O)N2CCc3cccnc32)ccc2ccccc12 [2,3-Dihydro-pyrrolo[2,3-b]pyridine-1-carboxylic acid 1-acetyl-naphthalen-2-yl ester]	> 30 µM
O=C(Oc1cc(Cl)c(Cl)cc1Cl)N1CCCCC1 [Piperidine-1-carboxylic acid 2,4,5-trichloro-phenyl ester]	18.2 µM
O=C(Nc1ccc2ccccc2c1Cl)N1CCC(C(O)(c2ccccc2)c2ccccc2)CC1 [4-(Hydroxy-diphenyl-methyl)-piperidine-1-carboxylic acid (1-chloro-naphthalen-2-yl)-amide]	0.794 µM
CC1CCN(C(=O)Oc2c(Cl)cc(Cl)cc2Cl)CC1 [4-Methyl-piperidine-1-carboxylic acid 2,4,6-trichloro-phenyl ester]	> 30 µM
Cc1ccc2cc(OC(=O)N3CCCc4ccccc43)ccc2n1 [3,4-Dihydro-2H-quinoline-1-carboxylic acid 2-methyl-quinolin-6-yl ester]	> 30 µM

SMILES	EC50
Cc1ccc2cc(OC(=O)N3CCN(c4ccccc4)CC3)ccc2n1 [4-Phenyl-piperazine-1-carboxylic acid 2-methyl-quionolin-6-yl ester]	> 30 µM
O=C(Oc1cc2ccccc2cn1)N1CCCc2ccccc21 [3,4-Dihydro-2H-quinoline-1-carboxylic acid isoquinolin-3-yl ester]	> 30 µM
O=C(Nc1ccc2ccccc2c1Cl)N1CCN(c2ccccc2)CC1 [4-Phenyl-piperazine-1-carboxylic acid (1-chloro-naphthalen-2-yl)-amide]	> 10 µM
O=C(Nc1ccc2ccccc2c1Cl)N1CCN(c2ccc(Cl)cc2)CC1 [4-(4-Chloro-phenyl)-piperazine-1-carboxylic acid (1-chloro-naphthalen-2-yl)-amide]	> 10 µM
O=C(NCC1CCCCC1)Oc1ccc2cc(Br)ccc2c1Br [Cyclohexylmethyl-carbamic acid 1,6-dibromo-naphthalen-2-yl ester]	> 30 µM
CC1CCCC(C)N1C(=O)Oc1c(Cl)cc(Cl)cc1Cl (centres unmarked) [2,6-Dimethyl-piperidine-1-carboxylic acid 2,4,6-trichloro-phenyl ester]	> 30 µM
O=C(Nc1ccc2ccccc2c1)N1CCC(Cc2ccccc2)CC1 [4-Benzyl-piperidine-1-carboxylic acid naphthalen-2-ylamide]	4.39 µM
O=C(Oc1ccc2cc(Br)ccc2c1)N1CCOCC1 [Morpholine-4-carboxylic acid 6-bromo-naphthalen-2-yl ester]	> 10 µM
O=C(Oc1cc2ccccc2cn1)N1CCCCC1 [Piperidine-1-carboxylic acid isoquinolin-3-yl ester]	> 30 µM
CCN(CC)C(=O)Oc1ccc2ccccc2c1Br [Diethyl-carbamic acid 1-bromo-naphthalen-2-yl ester]	2 µM
O=C(Nc1ccc2ccccc2c1)N1CCCCC1 [Piperidine-1-carboxylic acid naphthalen-2-ylamide]	> 10 µM
O=C(Oc1ccc2ccccc2c1Br)N1CCc2ccccc2C1 [3,4-Dihydro-1H-isoquinoline-2-carboxylic acid 1-bromo-naphthalen-2-yl ester]	0.174 µM
O=C(Oc1cc(Cl)c(Cl)cc1Cl)N1CCc2ccccc2C1 [3,4-Dihydro-1H-isoquinoline-2-carboxylic acid 2,4,5-trichloro-phenyl ester]	18.7 µM
O=C(Oc1ccc2ccccc2c1)N1CCCCC1 [Piperidine-1-carboxylic acid naphthalen-2-yl ester]	> 10 µM
O=C(Oc1c(Cl)cc(Cl)cc1Cl)N1CCc2ccccc2C1 [3,4-Dihydro-1H-isoquinoline-2-carboxylic acid 2,4,6-trichloro-phenyl ester]	> 30 µM
O=C(Oc1ccccc1Br)N1CCc2cccnc21 [2,3-Dihydro-pyrrolo[2,3-b]pyridine-1-carboxylic acid 2-bromo-phenyl ester]	> 30 µM
